Converted amounts (≈) assume the structure as drawn. Like-named read-outs stand apart in the source and are kept apart here.
Legend:
TK − VZV 07/1 strain = test: microbe, parasite or virus in culture; assay type: cell-based, Varicella zoster virus; details: Human alphaherpesvirus 3, read-out: IC50: concentration at which the virus production is inhibited by 50%
Method: (§1) The compounds were tested for antiviral activity by the Rega Institute (Leuven, Belgium).
(§2) The standard experiments for determining the biological activity of the compounds according to the invention were performed with CMV (Cytomegalovirus), varicella zoster virus, and RSV (respiratory syncytial virus).

TK − VZV YS/R strain = test: microbe, parasite or virus in culture; assay type: cell-based, Varicella zoster virus; details: Human alphaherpesvirus 3, read-out: IC50: concentration at which the virus production is inhibited by 50%
Method: as §1, §2

[1] = Cytotoxicity, reduction of cell growth (Table 2, VZV); assay type: cell-based; details: Table 2, varicella zoster virus
[2] = tested on: Respiratory syncytial virus; test: Respiratory syncytial virus antiviral activity; assay type: cell-based; details: human respiratory syncytial virus, read-out: IC50: concentration at which the virus production is inhibited by 50%
Method: as §1, §2

HeLa-cells = test: Minimal toxic concentration, cell morphology of HeLa-cells; assay type: cell-based
[3] = tested on: Cytomegalovirus AD-169 strain; test: Cytomegalovirus antiviral activity, AD-169 strain; assay type: cell-based; details: Human betaherpesvirus 5, AD169, read-out: IC50: concentration at which the virus production is inhibited by 50%
Method: as §2, with “The compounds were tested for antiviral activity by the Rega Institute (Leuven, Belgium). The” for “The”, “virus). [table]” for “virus).”

[4] = tested on: Cytomegalovirus Davis strain; test: Cytomegalovirus antiviral activity, Davis strain; assay type: cell-based; details: Human betaherpesvirus 5, read-out: IC50: concentration at which the virus production is inhibited by 50%
Method: as §2, with “The compounds were tested for antiviral activity by the Rega Institute (Leuven, Belgium). The” for “The”, “virus). [table]” for “virus).”

[5] = Cytotoxicity, reduction of cell growth (Table 1, CMV); assay type: cell-based; details: Table 1, cytomegalovirus
[6] = microscopically detectable change in normal cell morphology of HeLa-cells

Row | Molecule | IC50 (TK − VZV 07/1 strain) [µg/mL] | IC50 (TK − VZV YS/R strain) [µg/mL] | CC50 [1] [µg/mL] | IC50 [2] [µg/mL] | MTC: Minimal toxic concentration (HeLa-cells; [6]) [mg/mL] | IC50 [3] [µg/mL] | IC50 [4] [µg/mL] | CC50 [5] [µg/mL] | melting point [°C] | MTC: Minimal toxic concentration (HeLa-cells) [mg/mL]
1 | COC(=O)C1=C(C)NC(C)=C(C(=O)OCCOc2cc(=O)oc3ccccc23)C1c1ccccc1 (centres unmarked) [Example 1, 2,6-Dimethyl-4-phenyl-5-methoxycarbonyl-3-[{2-(coumarin-4-yloxy)ethoxy}carbonyl]-1,4-dihydropyridine] | 1.5 (≈ 3.15 µM) | 1 (≈ 2.1 µM) | 4.5 (≈ 9.46 µM) | 2.4 (≈ 5.05 µM) | 100 |  |  |  |  | 
2 | COC(=O)C1=C(C)NC(C)=C(C(=O)OCC(C)(C)COc2cc(=O)oc3ccccc23)C1c1ccccc1 (centres unmarked) [Example 6, 3-[{3-(Coumarin-4-yloxy)-2,2-dimethyl-1-propoxy}carbonyl]-2,6-dimethyl-5-methoxycarbonyl-4-phenyl-1,4-dihydropyridine] | 2 (≈ 3.86 µM) | 1 (≈ 1.93 µM) | 8.5 (≈ 16.4 µM) |  |  |  |  |  |  | 
3 | CCOC(=O)C1=C(C)NC(COc2cc(=O)oc3ccccc23)=C(C(=O)OCC)C1c1ccccc1C(F)(F)F (centres unmarked) [Example 24, 2-(Coumarin-4-yloxymethyl)-3,5-diethoxycarbonyl-6-methyl-4-(2-trifluoromethylphenyl)-1,4-dihydropyridine] | 2.5 (≈ 4.48 µM) | 1.5 (≈ 2.69 µM) | > 200 | 0.8 (≈ 1.43 µM) | 4.0 | 2.4 (≈ 4.3 µM) | 2.3 (≈ 4.13 µM) | > 200 |  | 
4 | CCOC(=O)C1=C(C)NC(COc2cc(=O)oc3ccccc23)=C(C(=O)OCC)C1c1cccc([N+](=O)[O-])c1 (centres unmarked) [Example 20, 2-(Coumarin-4-yloxymethyl)-3,5-diethoxycarbonyl-6-methyl-4-(3-nitrophenyl)-1,4-dihydropyridine] | 0.07 (≈ 0.131 µM) | 0.05 (≈ 0.0935 µM) | 1.6 (≈ 2.99 µM) |  |  |  |  |  | 76 to 79 | 
5 | COC(=O)C1=C(C)NC(C)=C(C(=O)OCCCOc2cc(=O)oc3ccccc23)C1c1ccccc1 (centres unmarked) [Example 4, 3-[{3-(Coumarin-4-yloxy)-1-propoxy}carbonyl]-2,6-dimethyl-5-methoxycarbonyl-4-phenyl-1,4-dihydropyridine] |  |  |  | 0.16 (≈ 0.327 µM) | 2.8 |  |  |  |  | 
6 | Nc1nc2c(ncn2COC(CO)CO)c(=O)[nH]1 [DHPG, 9-[(1,3-dihydroxy-2-propoxy)methyl]guanine, reference compound] |  |  |  |  |  | 1.8 (≈ 7.05 µM) | 1.8 (≈ 7.05 µM) | > 200 |  | 
7 | 4-[{2-(7-Coumarinyloxy)ethoxy}phenyl)-3,5-dimethoxycarbonyl-2,6-dimethyl-1,4-dihydropyridine.ethylacetate [Example 30] |  |  |  |  |  |  |  |  |  | 100

Source: patent US6689799B1, “1,4-dihydropyridine-5-carboxylic acid ester derivatives and method for the preparation thereof” (Rephartox, priority 1999, dated 2004)
